In US20210395217A1, “PESTICIDALLY ACTIVE AZOLE-AMIDE COMPOUNDS” (SYNGENTA PARTICIPATIONS AG, priority 2018, published 2021):

Assays:
Format in all cases: in vivo
Diabrotica balteata = experiment: Example B1: Diabrotica balteata (corn root worm), maize sprouts sprayed, L2 larvae; conditions: 96 h, application rate of 200 ppm, 4 days after infestation, read-out: control in at least one of the two categories (mortality or growth inhibition)
Description: Example B1: Diabrotica balteata (Corn Root Worm)
Maize sprouts placed onto an agar layer in 24-well microtiter plates were treated with aqueous test solutions prepared from 10′000 ppm DMSO stock solutions by spraying. After drying, the plates were infested with L2 larvae (6 to 10 per well). The samples were assessed for mortality and growth inhibition in comparison to untreated samples 4 days after infestation.
The following compounds gave an effect of at least 80% control in at least one of the two categories (mortality or growth inhibition) at an application rate of 200 ppm: […]

Plutella xylostella [1] = experiment: Example B4: Plutella xylostella (diamond back moth), artificial diet, 24-well, eggs; conditions: 192 h, application rate of 200 ppm, 8 days after infestation, 24-well plates, read-out: control in at least one of the two categories (mortality or growth inhibition)
Description: Example B4: Plutella xylostella (Diamond Back Moth)
24-well microtiter plates with artificial diet were treated with aqueous test solutions prepared from 10′000 ppm DMSO stock solutions by pipetting. After drying, Plutella eggs were pipetted through a plastic stencil onto a gel blotting paper and the plate was closed with it. The samples were assessed for mortality and growth inhibition in comparison to untreated samples 8 days after infestation. The following compounds gave an effect of at least 80% control in at least one of the two categories (mortality or growth inhibition) at an application rate of 200 ppm: […]

Spodoptera littoralis = experiment: Example B7: Spodoptera littoralis (Egyptian cotton leaf worm), cotton leaf discs sprayed, L1 larvae; conditions: foliar, 72 h, application rate of 200 ppm, 3 days after infestation, read-out: control in at least one of the three categories (mortality, anti-feedant effect, or growth inhibition)
Description: Example B7: Spodoptera littoralis (Egyptian Cotton Leaf Worm)
Cotton leaf discs were placed onto agar in 24-well microtiter plates and sprayed with aqueous test solutions prepared from 10′000 ppm DMSO stock solutions. After drying the leaf discs were infested with five L1 larvae. The samples were assessed for mortality, anti-feeding effect, and growth inhibition in comparison to untreated samples 3 days after infestation. Control of Spodoptera littoralis by a test sample is given when at least one of the categories mortality, anti-feedant effect, and growth inhibition is higher than the untreated sample.

Chilo suppressalis = experiment: Example B3: Chilo suppressalis (striped rice stem borer), artificial diet, L2 larvae; conditions: 144 h, application rate of 200 ppm, 6 days after infestation, read-out: control in at least one of the three categories (mortality, anti-feedant effect, or growth inhibition)
Description: Example B3: Chilo suppressalis (Striped Rice Stem Borer)
24-well microtiter plates with artificial diet were treated with aqueous test solutions prepared from 10′000 ppm DMSO stock solutions by pipetting. After drying, the plates were infested with L2 larvae (6-8 per well). The samples were assessed for mortality, anti-feeding effect, and growth inhibition in comparison to untreated samples 6 days after infestation. Control of Chilo suppressalis by a test sample is given when at least one of the categories mortality, anti-feedant effect, and growth inhibition is higher than the untreated sample.

Plutella xylostella [2] = experiment: Example B10: Plutella xylostella (diamondback moth), artificial diet, 96-well, eggs; conditions: 216 h, application rate of 500 ppm, 9 days after infestation, 96-well plates
Description: Example B10: Plutella xylostella (Diamondback Moth)
96-well microtiter plates containing artificial diet were treated with aqueous test solutions, prepared from 10′000 ppm DMSO stock solutions, by a liquid handling robot. After drying, eggs (˜30 per well) were infested onto a netted lid which was suspended above the diet. The eggs hatch and L1 larvae move down to the diet. The samples were assessed for mortality 9 days after infestation.
The following compounds gave an effect of at least 80% average mortality at an application rate of 500 ppm: […]

CC(NC(=O)c1cc(Cl)cc(Br)c1)c1ncnn1-c1ccc(C#N)cn1 (stereo not shown) [Compound F23, 3-bromo-5-chloro-N-[1-[2-(5-cyano-2-pyridyl)-1,2,4-triazol-3-yl]ethyl]benzamide]
≥ 80%: percent control (mortality or growth inhibition) at 200 ppm (Diabrotica balteata) | percent control (mortality or growth inhibition) at 200 ppm (Plutella xylostella [1]) | percent control (mortality, anti-feedant effect or growth inhibition) at 200 ppm (Spodoptera littoralis)

CC(NC(=O)c1cc(OCC(F)(F)F)cc(C(F)(F)F)c1)c1ncnn1-c1ccc(C#N)cn1 (stereo not shown) [Compound F21, N-[1-[2-(5-cyano-2-pyridyl)-1,2,4-triazol-3-yl]ethyl]-3-(2,2,2-trifluoroethoxy)-5-(trifluoromethyl) benzamide]
≥ 80%: percent control (mortality or growth inhibition) at 200 ppm (Diabrotica balteata) | percent control (mortality, anti-feedant effect or growth inhibition) at 200 ppm (Chilo suppressalis) | percent control (mortality or growth inhibition) at 200 ppm (Plutella xylostella [1]) | percent control (mortality, anti-feedant effect or growth inhibition) at 200 ppm (Spodoptera littoralis) | mortality at 500 ppm (Plutella xylostella [2])

Cc1nc(C(C)NC(=O)c2cc(C(F)(F)F)cc(C(F)(F)F)c2)n(-c2ccc(C#N)cn2)n1 (stereo not shown) [Compound F7, N-[1-[2-(5-cyano-2-pyridyl)-5-methyl-1,2,4-triazol-3-yl]ethyl]-3,5-bis (trifluoromethyl) benzamide]
≥ 80%: percent control (mortality or growth inhibition) at 200 ppm (Diabrotica balteata) | percent control (mortality or growth inhibition) at 200 ppm (Plutella xylostella [1]) | percent control (mortality, anti-feedant effect or growth inhibition) at 200 ppm (Spodoptera littoralis)

CC(NC(=O)c1cc(OCC(F)F)cc(C(F)(F)F)c1)c1ncnn1-c1ccc(C#N)cn1 (stereo not shown) [Compound F18, N-[1-[2-(5-cyano-2-pyridyl)-1,2,4-triazol-3-yl]ethyl]-3-(2,2-difluoroethoxy)-5-(trifluoromethyl) benzamide]
≥ 80%: percent control (mortality or growth inhibition) at 200 ppm (Diabrotica balteata) | percent control (mortality, anti-feedant effect or growth inhibition) at 200 ppm (Chilo suppressalis) | percent control (mortality or growth inhibition) at 200 ppm (Plutella xylostella [1]) | percent control (mortality, anti-feedant effect or growth inhibition) at 200 ppm (Spodoptera littoralis) | mortality at 500 ppm (Plutella xylostella [2])

CC(NC(=O)c1cc(SC(F)(F)F)cc(C(F)(F)F)c1)c1ncnn1-c1ccc(C#N)cn1 (stereo not shown) [Compound F5, N-[1-[2-(5-cyano-2-pyridyl)-1,2,4-triazol-3-yl]ethyl]-3-(trifluoromethyl)-5-(trifluoromethylsulfanyl) benzamide]
≥ 80%: percent control (mortality or growth inhibition) at 200 ppm (Diabrotica balteata) | percent control (mortality, anti-feedant effect or growth inhibition) at 200 ppm (Chilo suppressalis) | percent control (mortality or growth inhibition) at 200 ppm (Plutella xylostella [1]) | percent control (mortality, anti-feedant effect or growth inhibition) at 200 ppm (Spodoptera littoralis) | mortality at 500 ppm (Plutella xylostella [2])

CC(NC(=O)c1cc(C(F)F)cc(C(F)(F)F)c1)c1ncnn1-c1ccc(C#N)cn1 (stereo not shown) [Compound F15, N-[1-[2-(5-cyano-2-pyridyl)-1,2,4-triazol-3-yl]ethyl]-3-(difluoromethyl)-5-(trifluoromethyl) benzamide]
≥ 80%: percent control (mortality or growth inhibition) at 200 ppm (Diabrotica balteata) | percent control (mortality, anti-feedant effect or growth inhibition) at 200 ppm (Chilo suppressalis) | percent control (mortality or growth inhibition) at 200 ppm (Plutella xylostella [1]) | percent control (mortality, anti-feedant effect or growth inhibition) at 200 ppm (Spodoptera littoralis)

CC(NC(=O)c1cc(Cl)cc(Cl)c1)c1ncnn1-c1ccc(C#N)cn1 (stereo not shown) [Compound F22, 3,5-dichloro-N-[1-[2-(5-cyano-2-pyridyl)-1,2,4-triazol-3-yl]ethyl]benzamide]
≥ 80%: percent control (mortality or growth inhibition) at 200 ppm (Diabrotica balteata) | percent control (mortality, anti-feedant effect or growth inhibition) at 200 ppm (Chilo suppressalis) | percent control (mortality or growth inhibition) at 200 ppm (Plutella xylostella [1]) | percent control (mortality, anti-feedant effect or growth inhibition) at 200 ppm (Spodoptera littoralis)

CC(NC(=O)c1cc(OC(F)F)cc(C(F)(F)F)c1)c1ncnn1-c1ccc(C#N)cn1 (stereo not shown) [Compound F13, N-[1-[2-(5-cyano-2-pyridyl)-1,2,4-triazol-3-yl]ethyl]-3-(difluoromethoxy)-5-(trifluoromethyl) benzamide]
≥ 80%: percent control (mortality or growth inhibition) at 200 ppm (Diabrotica balteata) | percent control (mortality or growth inhibition) at 200 ppm (Plutella xylostella [1]) | percent control (mortality, anti-feedant effect or growth inhibition) at 200 ppm (Spodoptera littoralis)

CC(NC(=O)c1cc(Br)cc(OCC(F)F)c1)c1ncnn1-c1ccc(C#N)cn1 (stereo not shown) [Compound F20, 3-bromo-N-[1-[2-(5-cyano-2-pyridyl)-1,2,4-triazol-3-yl]ethyl]-5-(2,2-difluoroethoxy) benzamide]
≥ 80%: percent control (mortality, anti-feedant effect or growth inhibition) at 200 ppm (Chilo suppressalis) | percent control (mortality or growth inhibition) at 200 ppm (Plutella xylostella [1]) | percent control (mortality, anti-feedant effect or growth inhibition) at 200 ppm (Spodoptera littoralis) | mortality at 500 ppm (Plutella xylostella [2])

CC(NC(=O)c1cc(C(F)(F)F)cc(C(F)(F)F)c1)c1ncnn1-c1ccc(C#N)cn1 (stereo not shown) [Compound F3, N-[1-[2-(5-cyano-2-pyridyl)-1,2,4-triazol-3-yl]ethyl]-3,5-bis(trifluoromethyl) benzamide]
≥ 80%: percent control (mortality or growth inhibition) at 200 ppm (Diabrotica balteata) | percent control (mortality, anti-feedant effect or growth inhibition) at 200 ppm (Chilo suppressalis) | percent control (mortality or growth inhibition) at 200 ppm (Plutella xylostella [1]) | percent control (mortality, anti-feedant effect or growth inhibition) at 200 ppm (Spodoptera littoralis) | mortality at 500 ppm (Plutella xylostella [2])

CC(NC(=O)c1cc(Br)cc(OCC(F)(F)F)c1)c1ncnn1-c1ccc(C#N)cn1 (stereo not shown) [Compound F19, 3-bromo-N-[1-[2-(5-cyano-2-pyridyl)-1,2,4-triazol-3-yl]ethyl]-5-(2,2,2-trifluoroethoxy) benzamide]
≥ 80%: percent control (mortality, anti-feedant effect or growth inhibition) at 200 ppm (Chilo suppressalis) | percent control (mortality or growth inhibition) at 200 ppm (Plutella xylostella [1]) | percent control (mortality, anti-feedant effect or growth inhibition) at 200 ppm (Spodoptera littoralis) | mortality at 500 ppm (Plutella xylostella [2])

CC(NC(=O)c1cc(Br)cc(C(F)(F)F)c1)c1nc(C2CC2)nn1-c1ccc(C#N)cn1 (stereo not shown) [Compound F11, 3-bromo-N-[1-[2-(5-cyano-2-pyridyl)-5-cyclopropyl-1,2,4-triazol-3-yl]ethyl]-5-(trifluoromethyl) benzamide]
≥ 80%: percent control (mortality or growth inhibition) at 200 ppm (Diabrotica balteata) | percent control (mortality, anti-feedant effect or growth inhibition) at 200 ppm (Chilo suppressalis) | percent control (mortality or growth inhibition) at 200 ppm (Plutella xylostella [1]) | mortality at 500 ppm (Plutella xylostella [2])

CC(NC(=O)c1cc(OC(F)(F)F)cc(C(F)(F)F)c1)c1ncnn1-c1ccc(C#N)cn1 (stereo not shown) [Compound F17, N-[1-[2-(5-cyano-2-pyridyl)-1,2,4-triazol-3-yl]ethyl]-3-(trifluoromethoxy)-5-(trifluoromethyl) benzamide]
≥ 80%: percent control (mortality or growth inhibition) at 200 ppm (Diabrotica balteata) | percent control (mortality, anti-feedant effect or growth inhibition) at 200 ppm (Chilo suppressalis) | percent control (mortality or growth inhibition) at 200 ppm (Plutella xylostella [1]) | percent control (mortality, anti-feedant effect or growth inhibition) at 200 ppm (Spodoptera littoralis) | mortality at 500 ppm (Plutella xylostella [2])

CC(NC(=O)c1cc(C(F)(F)F)cc(C(F)(F)F)c1)c1nc(C2CC2)nn1-c1ccc(C#N)cn1 (stereo not shown) [Compound F10, N-[1-[2-(5-cyano-2-pyridyl)-5-cyclopropyl-1,2,4-triazol-3-yl]ethyl]-3,5-bis(trifluoromethyl) benzamide]
≥ 80%: percent control (mortality or growth inhibition) at 200 ppm (Diabrotica balteata) | percent control (mortality, anti-feedant effect or growth inhibition) at 200 ppm (Chilo suppressalis) | percent control (mortality or growth inhibition) at 200 ppm (Plutella xylostella [1]) | percent control (mortality, anti-feedant effect or growth inhibition) at 200 ppm (Spodoptera littoralis) | mortality at 500 ppm (Plutella xylostella [2])

CC(NC(=O)c1cc(Br)cc(C(F)(F)F)c1)c1ncnn1-c1ccc(C#N)cn1 (stereo not shown) [Compound F14, 3-bromo-N-[1-[2-(5-cyano-2-pyridyl)-1,2,4-triazol-3-yl]ethyl]-5-(trifluoromethyl) benzamide]
≥ 80%: percent control (mortality or growth inhibition) at 200 ppm (Diabrotica balteata) | percent control (mortality or growth inhibition) at 200 ppm (Plutella xylostella [1]) | percent control (mortality, anti-feedant effect or growth inhibition) at 200 ppm (Spodoptera littoralis)

CC(NC(=O)c1cc(Br)cc(OC(F)F)c1)c1ncnn1-c1ccc(C#N)cn1 (stereo not shown) [Compound F1, 3-bromo-N-[1-[2-(5-cyano-2-pyridyl)-1,2,4-triazol-3-yl]ethyl]-5-( ) difluoromethoxy benzamide]
≥ 80%: percent control (mortality or growth inhibition) at 200 ppm (Diabrotica balteata) | percent control (mortality, anti-feedant effect or growth inhibition) at 200 ppm (Chilo suppressalis) | percent control (mortality or growth inhibition) at 200 ppm (Plutella xylostella [1]) | percent control (mortality, anti-feedant effect or growth inhibition) at 200 ppm (Spodoptera littoralis) | mortality at 500 ppm (Plutella xylostella [2])
